# Laboratory results reported in US9067905B2, “Sulphone compounds and methods of making and using same” (Zafgen, Inc., priority 2009, dated 2015).
# Where a name gives a salt, the structure may show the parent alone.
# Biological target: T1, recombinant human MetAP2 (Homo sapiens, UniProt P50579)
# T1 construct: Flag; made in house; host or cells: Sf9 insect cells
# Assay: Inhibition of recombinant human MetAP2 activity (Amplex red fluorescence assay)
# Format: biochemical
# Settings: manganese Flag-MetAP2, 0.75 mM Methionine-Alanine-Serine substrate, 30 minutes at 25° C., pH 7.5, 1% DMSO
# Experimental: Compounds are tested for their capacity to inhibit recombinant human MetAP2 activity using the following assay.
# Human recombinant Flag-MetAP2 expressed in Sf9 cells followed by affinity purification and EDTA treatment to remove endogenous active site cation is dialysed against MnCl2 to produce the manganese enzyme used in the assay. The assay is carried out for 30 minutes at 25° C. in 50 mM HEPES buffer containing 100 mM NaCl, pH 7.5 the presence of 0.75 mM Methionine-Alanine-Serine (MAS) substrate and 50 μg/ml amino acid oxidase using a dilution of purified MetAP2 giving approximately 50,000 RFU control activity. Cleavage of the substrate by MetAP2 and oxidation of free methionine by amino acid oxidase is detected and quantified using fluorescence generated by Amplex red (10-acetyl-3,7-dihydroxyphenoxazine) in combination with horseradish peroxidase which detects H2O2 released during the oxidation step. The fluorescent signal is detected using a multiwell fluorimeter. Compounds are diluted in DMSO prior to addition to assay buffer, the final DMSO concentration in the assay being 1%.
# The IC50 is defined as the concentration at which a given compound achieves 50% inhibition of control. IC50 values are calculated using the XLfit software package (version 2.0.5).
# T1 sequence (P50579 whole entry): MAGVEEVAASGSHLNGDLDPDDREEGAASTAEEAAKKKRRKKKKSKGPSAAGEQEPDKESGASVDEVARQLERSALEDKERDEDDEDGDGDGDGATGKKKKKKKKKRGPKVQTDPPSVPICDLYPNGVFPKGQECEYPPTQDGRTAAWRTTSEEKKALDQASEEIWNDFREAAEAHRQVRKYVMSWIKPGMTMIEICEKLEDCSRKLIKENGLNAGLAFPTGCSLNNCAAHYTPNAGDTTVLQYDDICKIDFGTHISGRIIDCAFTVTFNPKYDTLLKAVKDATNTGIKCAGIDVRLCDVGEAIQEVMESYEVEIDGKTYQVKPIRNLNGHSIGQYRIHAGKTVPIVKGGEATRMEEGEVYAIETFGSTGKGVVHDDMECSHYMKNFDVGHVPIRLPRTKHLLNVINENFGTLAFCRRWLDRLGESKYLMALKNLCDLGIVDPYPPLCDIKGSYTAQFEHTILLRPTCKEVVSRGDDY
row,Compound,IC50 [nM]
1,CN(C)CCOc1c(-c2ccoc2)ccc(CS(=O)(=O)c2ccccc2)c1C(=O)O [6-(Benzenesulphonylmethyl)-2-(2-dimethylaminoethoxy)-3-(3-furanyl)benzoic acid hydrochloride],> 2000
2,CCc1c(-c2ccoc2)ccc(CS(=O)(=O)c2ccccc2)c1C(=O)O [6-(Benzenesulphonylmethyl)-2-ethyl-3-(furan-3-yl)benzoic acid],200 to 2000
3,N#CCOc1c(-c2ccoc2)ccc(CS(=O)(=O)c2ccccc2)c1C(=O)O [6-(Benzenesulphonylmethyl)-2-(cyanomethoxy)-3-(furan-3-yl)benzoic acid],< 200
4,COc1c(-c2ccoc2)ccc(CS(=O)(=O)N2C3CCC2CC3)c1C(=O)O [6-(7-Azabicyclo[2.2.1]heptane-7-ylsulphonylmethyl)-3-(furan-3-yl)-2-methoxybenzoic acid],200 to 2000
5,NC(=O)COc1c(-c2ccoc2)ccc(CS(=O)(=O)c2ccccc2)c1C(=O)O [6-(Benzenesulphonylmethyl)-2-(carbamoylmethoxy)-3-(furan-3-yl)-benzoic acid],200 to 2000
6,NCCNc1c(-c2ccoc2)ccc(CS(=O)(=O)c2ccccc2)c1C(=O)O [2-(2-Aminoethylamino)-6-benzenesulphonylmethyl-3-(furan-3-yl)-benzoic acid hydrochloride],> 2000
7,COc1c(-c2cc[nH]n2)ccc(CS(=O)(=O)c2ccccc2)c1C(=O)O [6-(Benzenesulphonylmethyl)-2-methoxy-3-(pyrazol-3-yl)benzoic acid],> 2000
8,COc1c(-c2cccs2)ccc(CS(=O)(=O)c2ccccc2)c1C(=O)O [6-(Benzenesulphonylmethyl)-2-methoxy-3-(thien-2-yl)benzoic acid],> 2000
9,COc1cccc2ccc(CS(=O)(=O)c3ccccc3)c(C(=O)O)c12 [2-(Benzenesulphonylmethyl)-8-methoxynaphthalene-1-carboxylic acid],> 2000
10,CCc1ccc(CS(=O)(=O)c2ccc(F)cc2)c(C(=O)O)c1OC [3-Ethyl-6-(4-fluorobenzenesulphonylmethyl)-2-methoxybenzoic acid],200 to 2000
11,CCc1ccc(C(C)S(=O)(=O)c2ccccc2)c(C(=O)O)c1OC (centres unmarked) [6-(1-Benzenesulphonylethyl)-3-ethyl-2-methoxy-benzoic acid],200 to 2000
12,CCc1ccc(CS(=O)(=O)c2ccccc2C)c(C(=O)O)c1OC [3-Ethyl-2-methoxy-6-(2-methylbenzenesulphonylmethyl)benzoic acid],200 to 2000
13,"COc1c(-c2ccoc2)ccc(CS(=O)(=O)N2CCC(F)(F)CC2)c1C(=O)O [6-(4,4-Difluoropiperidine-1-ylsulphonylmethyl)-3-(furan-3-yl)-2-methoxybenzoic acid]",< 200
14,CCc1ccc(C[S+]([O-])c2ccccc2)c(C(=O)O)c1OC (centres unmarked) [6-(Benzenesulphinylmethyl)-3-ethyl-2-methoxy-benzoic acid],> 2000
15,COc1c(C)ccc(CS(=O)(=O)c2ccccc2)c1C(=O)O [6-(Benzenesulphonylmethyl)-2-methoxy-3-methyl-benzoic acid],200 to 2000
16,COc1c(-c2ccoc2)ccc(CS(=O)(=O)c2ccccc2Cl)c1C(=O)O [6-(2-Chlorobenzenesulphonylmethyl)-3-(furan-3-yl)-2-methoxybenzoic acid],200 to 2000
17,Cc1occc1-c1ccc(CS(=O)(=O)c2ccccc2)c(C(=O)O)c1 [2-(Benzenesulphonylmethyl)-5-(2-methylfuran-3-yl)benzoic acid],200 to 2000
18,COc1ccccc1S(=O)(=O)Cc1ccc(-c2ccoc2)c(OC)c1C(=O)O [3-(Furan-3-yl)-2-methoxy-6-(2-methoxybenzenesulphonylmethyl)-benzoic acid],200 to 2000
19,COc1c(-c2ccoc2)ccc(CS(=O)(=O)c2ccccc2F)c1C(=O)O [6-(2-Fluorobenzenesulphonylmethyl)-3-(furan-3-yl)-2-methoxybenzoic acid],200 to 2000
20,COc1c(-c2ccoc2)ccc(CS(=O)(=O)c2ccccc2O)c1C(=O)O [3-(Furan-3-yl)-6-(2-hydroxybenzenesulphonylmethyl)-2-methoxybenzoic acid],< 200
21,COc1c(-c2ccoc2)ccc(CS(=O)(=O)c2ccccn2)c1C(=O)O [3-(Furan-3-yl)-2-methoxy-6-(pyridin-2-ylsulphonylmethyl)benzoic acid],< 200
22,NCCCOc1c(-c2ccoc2)ccc(CS(=O)(=O)c2ccccc2)c1C(=O)O [2-(3-Aminopropoxy)-6-(benzenesulphonylmethyl)-3-(furan-3-yl)benzoic acid hydrochloride],200 to 2000
23,NCCCc1c(-c2ccoc2)ccc(CS(=O)(=O)c2ccccc2)c1C(=O)O [2-(3-Aminopropyl)-6-(benzenesulphonylmethyl)-3-(furan-3-yl)-benzoic acid hydrochloride],> 2000
24,COc1c(-n2cccn2)ccc(CS(=O)(=O)c2ccccc2)c1C(=O)O [6-(Benzenesulphonylmethyl)-2-methoxy-3-(pyrazol-1-yl)benzoic acid],> 2000

# The next lines start with the values.
row,IC50 [nM],Compound
1,< 200,COc1c(-c2ccns2)ccc(CS(=O)(=O)c2ccccc2)c1C(=O)O [6-(Benzenesulphonylmethyl-3-(isothiazol-5-yl)-2-methoxy-benzoic acid]
2,200 to 2000,CCc1ccc(CS(=O)(=O)c2ccccc2)c(C(=O)O)c1OC [6-(Benzenesulphonylmethyl)-3-ethyl-2-methoxy-benzoic acid]
3,> 2000,O=C(O)c1c(CS(=O)(=O)c2ccccc2)ccc(-c2ccoc2)c1O [6-(benzenesulphonylmethyl)-3-(furan-3-yl)-2-hydroxybenzoic acid]
4,< 200,COc1c(-c2ccoc2)ccc(CS(=O)(=O)c2ccccc2/C=C\CN2CCCCC2)c1C(=O)O [(Z)-3-(Furan-3-yl)-2-methoxy-6-((2-(3-(piperidin-1-yl)prop-1-enyl)benzenesulfonyl)methyl)benzoic acid]
5,> 2000,CNCCOc1c(-c2ccoc2)ccc(CS(=O)(=O)c2ccccc2)c1C(=O)O [6-(Benzenesulphonylmethyl)-3-(furan-3-yl)-2-[2-(methylamino)-ethoxy]benzoic acid hydrochloride]
6,> 2000,COc1c(-c2ccon2)ccc(CS(=O)(=O)c2ccccc2)c1C(=O)O [6-(Benzenesulphonylmethyl)-3-(isoxazol-3-yl)-2-methoxybenzoic acid]
7,200 to 2000,COc1c(C2CC2)ccc(CS(=O)(=O)c2ccccc2)c1C(=O)O [6-(Benzenesulphonylmethyl)-3-cyclopropyl-2-methoxy-benzoic acid]
8,200 to 2000,CCN(CC)CCNc1ccccc1S(=O)(=O)Cc1ccc(-c2ccoc2)c(OC)c1C(=O)O [6-[2-(2-Diethylaminoethylamino)benzenesulphonylmethyl]-3-(furan-3-yl)-2-methoxybenzoic acid]
9,200 to 2000,CCc1ccc(CS(=O)(=O)c2ccccc2)c(C(=O)O)c1-c1cc[nH]n1 [6-(Benzenesulphonylmethyl)-3-ethyl-2-(1H-pyrazol-3-yl)benzoic acid]
10,200 to 2000,COc1c(-c2ccoc2)ccc(CS(=O)(=O)C2C3CCC2CC3)c1C(=O)O (centres unmarked) [6-(Bicyclo[2.2.1]heptane-7-ylsulphonylmethyl)-3-(furan-3-yl)-2-methoxybenzoic acid]
11,< 200,CCN(CC)CCCNc1ccccc1S(=O)(=O)Cc1ccc(-c2ccoc2)c(OC)c1C(=O)O [6-[2-(3-Diethylaminopropylamino)benzenesulphonylmethyl]-3-(furan-3-yl)-2-methoxybenzoic acid]
12,> 2000,COc1c(C#N)ccc(CS(=O)(=O)c2ccccc2)c1C(=O)O [6-(Benzenesulphonylmethyl)-3-cyano-2-methoxy-benzoic acid]
13,> 2000,COc1c(-n2ccnc2)ccc(CS(=O)(=O)c2ccccc2)c1C(=O)O [6-(Benzenesulphonylmethyl)-3-(imidazol-1-yl)-2-methoxybenzoic acid]
14,> 2000,COc1c(-c2ccco2)ccc(CS(=O)(=O)c2ccccc2)c1C(=O)O [6-(Benzenesulphonylmethyl)-3-(furan-2-yl)-2-methoxy-benzoic acid]
15,> 2000,COc1c(C2CCOC2)ccc(CS(=O)(=O)C2CC3CCC2CC3)c1C(=O)O (centres unmarked) [6-(Bicyclo[2.2.2]octane-2-ylsulphonylmethyl)-2-methoxy-3-(tetrahydrofuran-3-yl)benzoic acid]
16,< 200,CCN(CC)C/C=C\c1cc(F)ccc1S(=O)(=O)Cc1ccc(-c2ccoc2)c(OCC#N)c1C(=O)O [(Z)-2-Cyanomethoxy-6-((2-(3-(Diethylamino)prop-1-enyl)-4-fluorobenzenesulfonyl)methyl)-3-(furan-3-yl)benzoic acid]
17,200 to 2000,COc1c(-c2cnsc2)ccc(CS(=O)(=O)c2ccccc2)c1C(=O)O [6-(Benzenesulphonylmethyl)-3-(isothiazol-4-yl)-2-methoxybenzoic acid]
18,> 2000,COc1c(-c2ccoc2)ccc(CS(=O)(=O)C2CC3CCC2CC3)c1C(=O)O (centres unmarked) [6-(Bicyclo[2.2.2]octane-2-ylsulphonylmethyl)-3-(furan-3-yl)-2-methoxybenzoic acid]
19,> 2000,CCc1ccc(CS(=O)(=O)c2ccccc2)c(C(=O)O)c1-c1ccn(C)n1 [6-Benzenesulphonylmethyl-3-ethyl-2-(1-methyl-1H-pyrazol-3-yl)-benzoic acid]
20,> 2000,COc1c(-c2ccsc2)ccc(CS(=O)(=O)c2ccccc2)c1C(=O)O [6-(Benzenesulphonylmethyl)-2-methyoxy-3-(thien-3-yl)benzoic acid]
